Experimental findings from US12435083B2, “Cyclopropyl-(hetero)aryl-substituted ethylsulphonyl-pyridine derivatives” (BOEHRINGER INGELHEIM VETMEDICA GMBH, priority 2021, dated 2025) are described below.

Like-named read-outs stand apart in the source and are kept apart here.

For assay [1], the system named is adult Ctenocephalides felis fleas. The assay is described as follows: Contact activity against adult Ctenocephalides felis (treated surface, motility by machine vision, 24 h). To be noted: treated surface, 24h, read-out: EC80 (% motility reduction, adult C. felis, contact). The text has this: Example 7: Screening Method to Test Contact Activity of Compounds of Formula (I) Against Adult Ctenocephalides felis

Assay [2] shares this test system. The assay is described as follows: Ingestion activity (flea membrane feeding, blood feeding) against adult Ctenocephalides felis. To be noted: for activity against fleas (flea membrane feeding and flea contact assays), in words: in vitro profiling. From the text:
Example 6: Screening Method to Test Ingestion Activity of Compounds of Formula (I) Against Adult Ctenocephalides felis
(§1) The four structurally closest prior art compounds (A), (B), (C) and (D) specifically excluded from the scope of formula (I) were characterized vis-a-vis selected compounds of formula (I) with regard to their potency in in vitro screening assays against fleas (Ctenocehalides felis) and ticks (Rhipicephalus sanguineus).
It is important to note that compounds that show better activity versus ticks are more desirable in the animal health field, as ticks are more difficult to control than fleas. Noteworthy, in particular with regard to fleas the illustrated comparative data are based on a flea membrane feeding (ingestion, blood feeding) assay. Data from this assay are more relevant for compounds intended to be delivered systemically to an animal via oral or injectable routes. Membrane feeding assays differ to primary screening laboratory contact assays in that the latter only measure the effect of the direct contact of selected compounds on the parasite, such as the flea or the tick. The information derived from laboratory contact assays is strictly limited to the ability of the compound to be absorbed through the parasite surface and to reach its molecular target, and no information can be gleaned from these contact assays as to whether the compound would also be active when presented orally to the ectoparasite itself in a blood meal, such as with the membrane feeding assay, and certainly not when administered orally to an animal host (e.g. “in vivo”) with subsequent exposure to the ectoparasite.
(§2) However, as explained above, spectrum of action against this range of species (i.e. fleas and ticks) is a desirable property of ectoparasiticides for veterinary use. In the following table 1 comparative experimental data of the in vitro assays are shown regarding flea membrane feeding (ingestion, blood feeding) activity against Ctenocephalides felis and contact activity against Rhipicephalus sanguineus.

Assay [3] deals with adult Rhipicephalus sanguineus ticks. Description: Contact activity against adult Rhipicephalus sanguineus (coated vial, mortality at 48 h). To be noted: for activity against ticks (tick contact assay), in words: in vitro profiling. As for the experimental part: Example 5: Screening Method to Test Contact Activity of Compounds of Formula (I) Against Adult Rhipicephalus sanguineus
Compounds of formula (I) formulated in 100% DMSO were diluted in a solution containing acetone and Triton X-100 (0.02%). The resulting formulation was used to coat the inner walls of glass scintillation vials and the filter paper covering the cap of the vial. Once dried, ten adult R. sanguineus ticks were added to the vials. The vials were incubated at 24° C., 95% relative humidity, and 12 hours of light/12 hours of dark until evaluation. Ticks were visually evaluated for mortality at 48 hours post-treatment. Compound efficacy at a given dose is expressed as percentage mortality. A dose response series was implemented to determine EC50 values.
as §1, §2

The next assay deals with Plutella xylostella. The assay is described as follows: Insecticidal test on Plutella xylostella (Chinese cabbage seedling dip). To be noted: 144 h, 500 ppm, seedling dip, 6 days after dip treatment, read-out: activity level (corrected mortality rate), Plutella xylostella. How it is done:
Example 12: Insecticidal Test on Plutella xylostella
The compounds of formula (I) of the present invention or salts thereof were separately dispersed in water and diluted to 500 ppm. Ten adults of Plutella xylostella were released onto Chinese cabbage seedlings and allowed to lay eggs thereon. 2 days after the release of the adults, the seedling was dipped in the dispersion for about 30 seconds. After air dried, the seedling was kept in a room at 25° C. 6 days after the dip treatment, the numbers of the dead and alive insects were counted. The corrected mortality rate was calculated according to the following formula and the insecticidal activity was evaluated according to the following criteria. Corrected mortality rate (%)=100×(Survival rate in an untreated plot−Survival rate in a treated plot)/Survival rate in an untreated plot • A: the corrected mortality rate is 100% • B: the corrected mortality rate is 90 to 99% • C: the corrected mortality rate is 80 to 89% • D: the corrected mortality rate is 50 to 79%

[4] abbreviates: flea membrane feeding (ingestion, blood feeding) assay, EC80.
Setting [5] is: contact assay, >100 μM = not active at the top concentration, read-out: R. sanguineus contact activity EC50.
Where [6] appears, read: flea membrane feeding (ingestion, blood feeding) assay, EC80, read-out: C. felis membrane feeding (ingestion/blood feeding) activity EC80.
Setting [7] is: Ctenocephalides felis, 24 h, flea membrane feeding (ingestion, blood feeding) assay, EC80, read-out: C. felis membrane feeding (ingestion/blood feeding) activity EC80.
Where [8] appears, read: Ctenocephalides felis, bovine blood, 24h post treatment, read-out: EC80 (% motility reduction, adult C. felis, ingestion via membrane feeding).
The mark [9] stands for this setting: Rhipicephalus sanguineus, 48 hours post-treatment, coated vial, read-out: EC50 (percentage mortality, adult R. sanguineus, contact).
Where [10] appears, read: Rhipicephalus sanguineus, contact assay, >100 μM = not active at the top concentration, read-out: R. sanguineus contact activity EC50.

On to `CCS(=O)(=O)c1cc(-c2cc(C3CC3)ccn2)cnc1-c1nc2cc3c(cc2n1C)OC(F)(F)O3` [Compound 14, 6-(4-cyclopropyl-5′-(ethylsulfonyl)-[2,3′-bipyridin]-6′-yl)-2,2-difluoro-5-methyl-5H-[1,3]dioxolo[4′,5′:4,5]benzo[1,2-d]imidazole], for which, in assay [1], the EC80 is 1 to 10 µM.
`CCS(=O)(=O)c1cc(-c2ccc(C3CC3(F)F)cc2)cnc1-c1nc2cc(C(F)(F)C(F)(F)F)nnc2n1C` (centres unmarked) [compound 135]: the “C. felis membrane feeding (ingestion/blood feeding) activity EC80” value in assay [2] (setting [4]) was 1 to 10 µM. Besides, the EC50 in assay [3] (setting [5]) lay within 10 to 100 µM.
Taken in the same sequence, the figures for `CCS(=O)(=O)c1cc(-c2ccc(C3CC3)nc2)cnc1-c1nc2cc(C(F)(F)F)n(C3CC3)c(=O)c2n1C` [compound 89] were 1 to 10 µM and 10 to 100 µM.
In the case of `CCS(=O)(=O)c1cc(-c2ccc(C3CC3)nn2)cnc1-c1nc2cc(C(F)(F)C(F)(F)F)cnc2n1C` [compound 153], the “C. felis membrane feeding (ingestion/blood feeding) activity EC80” value in assay [2] (setting [4]) lay within 1 to 10 µM. For the same compound, in assay [3] (setting [5]), the EC50 is 10 to 100 µM.
Consider `CCS(=O)(=O)c1cc(-c2cc(C3CC3)nc(C)n2)cnc1-c1nc2cc(C(F)(F)C(F)(F)F)cnc2n1C` [compound 166], for which the EC80 in assay [2] (setting [6]) is recorded as less than 1 µM. Also, the EC50 in assay [3] (setting [5]) lay within 10 to 100 µM.
Take `CCS(=O)(=O)c1cc(-c2ccc(C3CC3)cc2)cnc1-n1cc2ccc(C(F)(F)F)cc2n1` [Compound 46, 2-[5-(4-cyclopropylphenyl)-3-(ethanesulfonyl)pyridin-2-yl]-6-(trifluoromethyl)indazole]: the EC80 in assay [2] (setting [7]) and in assay [2] (setting [8]) was 1 to 10 µM each time. Further, the EC50 in assay [3] (setting [9]) and in assay [3] (setting [10]) was 10 to 100 µM throughout.
With `CCS(=O)(=O)c1cc(-c2ccc(C3CC3)cc2)cnc1-c1cc2n(C(F)F)cc(C(F)(F)F)cc-2n1` [Compound 97], the mortality at 500 ppm with Plutella xylostella is 100%. Further, the EC80 in assay [2] (setting [7]) is less than 1 µM. For the same compound, the half-maximal effective concentration (EC50) in assay [3] (setting [10]) lay within 10 to 100 µM.
Take `CCS(=O)(=O)c1cc(-c2ccc(C3(C#N)CC3)nc2)cnc1-c1nc2cc(C(F)(F)F)n(C3CC3)c(=O)c2n1C` [compound 133]: the “C. felis membrane feeding (ingestion/blood feeding) activity EC80” value in assay [2] (setting [4]) was 1 to 10 µM. For the same compound, the EC50 in assay [3] (setting [5]) was in the range of 10 to 100 µM.
Turning to `CCS(=O)(=O)c1cc(-c2ccc(C3CC3)cn2)cnc1-n1ncc(OCC(F)(F)C(F)(F)F)cc1=O` [(D), reference compound], the EC80 in assay [2] (setting [7]) was greater than 10 µM. In addition, the “activity against fleas (flea membrane feeding and flea contact assays), in words” value (“activity against fleas” below) in assay [2] (Ctenocephalides felis) is listed as “some activity”. Also, the “activity against ticks (tick contact assay), in words” value (from here on “activity against ticks”) in assay [3] (Rhipicephalus sanguineus) is listed as “no activity”. Moreover, in assay [3] (setting [10]), the EC50 is greater than 100 µM.
For `CCS(=O)(=O)c1cc(-c2ccc(C3(C#N)CC3)cc2)cnc1-c1nc2cc(C(F)(F)F)n(C3CC3)c(=O)c2n1C` [compound 88], in assay [2] (setting [4]), the “C. felis membrane feeding (ingestion/blood feeding) activity EC80” value fell in the range of 1 to 10 µM. Besides, the EC50 in assay [3] (setting [5]) was in the range of 10 to 100 µM.
On to `CCS(=O)(=O)c1cc(-c2ccc(C3CC3)cc2)cnc1-n1ncc2ncc(C(F)(F)C(F)(F)F)cc21` [Compound 191, 5-(4-cyclopropylphenyl)-3-(ethanesulfonyl)-2-[6-(1,1,2,2,2-pentafluoroethyl)-1H-pyrazolo[4,3-b]pyridin-1-yl]pyridine], for which the mortality at 500 ppm with Plutella xylostella is 100%.
For the compound `C=CCn1cc(C(F)(F)F)cc2nc(-c3ncc(-c4ccc(C5(C#N)CC5)cc4)cc3S(=O)(=O)CC)c(F)c1-2` [Compound 198, 1-{4-[5-(ethanesulfonyl)-6-[3-fluoro-4-(prop-2-en-1-yl)-6-(trifluoromethyl)pyrrolo[3,2-b]pyridin-2-yl]pyridin-3-yl]phenyl}cyclopropane-1-carbonitrile], in assay [2] (setting [8]), the EC80 was 1 to 10 µM.
Turning to `CCn1cc(C(F)(F)F)cc2nc(-c3ncc(-c4cccc(C5CC5)n4)cc3S(=O)(=O)CC)cc1-2` [compound 113], in the assay on Plutella xylostella, the mortality at 500 ppm was 100%.
`CCS(=O)(=O)c1cc(-c2nc(C)cc(C3CC3)n2)cnc1-c1nc2cc(C(F)(F)F)ncc2n1C` [(C), reference compound]: the EC80 in assay [2] (setting [7]) was greater than 10 µM. In assay [2] (Ctenocephalides felis), the “activity against fleas” value was “some activity”. Further, the “activity against ticks” value in assay [3] (Rhipicephalus sanguineus) is given as “no activity”. Further, the EC50 in assay [3] (setting [10]) was greater than 100 µM.
Regarding `CCn1c(=O)c(C(F)(F)F)cc2nc(-c3ncc(-c4ccc(C5CC5)cc4)cc3S(=O)(=O)CC)n(C)c21` [compound 214, 2-[5-(4-cyclopropylphenyl)-3-(ethanesulfonyl)pyridin-2-yl]-4-ethyl-3-methyl-6-(trifluoromethyl)-3H,4H,5H-imidazo[4,5-b]pyridin-5-one], the EC80 in assay [2] (setting [8]) is less than 1 µM.
For the compound `CCS(=O)(=O)c1cc(-c2ccc(C3CC3)cc2)cnc1-c1nc2cc(C(F)(F)F)cn(CC(F)F)c-2c1F` [compound 12], the EC80 in assay [2] (setting [6]) is less than 1 µM. Further, the EC50 in assay [3] (setting [5]) is 10 to 100 µM.
On to `CCS(=O)(=O)c1cc(-c2ccc(C3(F)CC3)nc2)cnc1-c1nc2cc(C(F)(F)F)n(C3CC3)c(=O)c2n1C` [Compound 176, 5-cyclopropyl-2-[5-(ethanesulfonyl)-6′-(1-fluorocyclopropyl)-[3,3′-bipyridin]-6-yl]-3-methyl-6-(trifluoromethyl)imidazo[4,5-c]pyridin-4-one], for which the EC80 in assay [2] (setting [8]) fell in the range of 1 to 10 µM. For the same compound, in assay [3] (setting [9]), the half-maximal effective concentration (EC50) is 10 to 100 µM.
Consider `CCS(=O)(=O)c1cc(-c2ccc(C3(F)CC3)cc2)cnc1-c1nc2cc(C(F)(F)F)n(C3CC3)c(=O)c2n1C` [compound 124], for which the “C. felis membrane feeding (ingestion/blood feeding) activity EC80” value in assay [2] (setting [4]) fell in the range of 1 to 10 µM. For the same compound, the EC50 in assay [3] (setting [5]) fell in the range of 10 to 100 µM.
As for `CCS(=O)(=O)c1cc(-c2nccc(C3CC3)n2)cnc1-c1nc2cc(C(F)(F)C(F)(F)F)cnc2n1C` [compound 165], the EC80 in assay [2] (setting [6]) was less than 1 µM. Besides, the EC50 in assay [3] (setting [5]) was in the range of 10 to 100 µM.
Taken in the same sequence, the figures for `CCS(=O)(=O)c1cc(-c2ccc(C3CC3)nc2)cnc1-c1nc2cc(SC(F)(F)F)nnc2n1C` [compound 186] were less than 1 µM and less than 10 µM.
Turning to `CCS(=O)(=O)c1cc(-c2cc(C3CC3)nc(C)n2)cnc1-c1nc2cc(C(F)(F)C(F)(F)F)nnc2n1C` [compound 142], in assay [2] (setting [4]), the “C. felis membrane feeding (ingestion/blood feeding) activity EC80” value lay in the range of 1 to 10 µM. In addition, the EC50 in assay [3] (setting [5]) is 10 to 100 µM.
Taken in the same sequence, the figures for `CCS(=O)(=O)c1cc(-c2cccnc2C2CC2)cnc1-c1nc2cc(C(F)(F)C(F)(F)F)cnc2n1C` [compound 169] were 1 to 10 µM and 10 to 100 µM.
As to `CCS(=O)(=O)c1cc(-c2ccc(C3(C#N)CC3)cc2)cnc1-n1nc2ccc(C(F)(F)F)cn2c1=O` [(B), reference compound], the EC80 in assay [2] (setting [7]) was greater than 10 µM. Also, the “activity against fleas” value in assay [2] (Ctenocephalides felis) was “some activity”. The “activity against ticks” value in assay [3] (Rhipicephalus sanguineus) is given as “no activity”. In addition, in assay [3] (setting [10]), the 50% effective concentration (EC50) was greater than 100 µM.
Taken in the same sequence, the figures for `CCS(=O)(=O)c1cc(-c2ccc(C3(C#N)CC3)cc2)cnc1-n1ncc2ccc(C(F)(F)F)cc2c1=O` [(A), reference compound] were greater than 10 µM, “some activity”, “no activity” and greater than 100 µM.
Take `CCS(=O)(=O)c1cc(-c2ccc(C3(C#N)CC3)cc2)cnc1-c1nc2cc(C(F)(F)C(F)(F)F)cnc2n1C` [compound 80]: the EC80 in assay [2] (setting [6]) was less than 1 µM. Moreover, in assay [3] (setting [5]), the EC50 fell in the range of 10 to 100 µM.

The EC50 is the concentration at which the effect is half-maximal. What is called mortality is the percentage killed.
